Measurements reported in patent US4550186A, “Binuclear copper (II) carboxylates formed from amine-carboxyboranes” (Duke University, priority 1983, dated 1985).

Columns and labels:
Acetyl CoA synthetase = test: In vivo liver enzyme study: acetyl CoA synthetase; design: species or system mouse; settings: CF1 liver after 16 days i.p.
Procedure: (§1) In vitro enzymatic studies were determined using 10% homogenates of CF1 male mouse liver with 50-200 μM of test drugs. In vivo enzymatic studies were determined using 10% homogenates of liver from CF1 male mice obtained after administering the agents for 16 days at a dose ranging from 2.5-20 mg/kg/day intraperitoneally. The liver homogenates for both in vitro and in vivo studies were prepared in 0.25M sucrose and 0.001M (ethylenedinitrilo)tetraacetic acid. Acetyl coenzyme A synthetase and adenosine triphosphate dependent citrate lyase activities were determined spectrophotometrically at 540 nm as the hydroxylamate of acetyl coenzyme A formed after 30 min at 37° C. Mitochondrial citrate exchange was determined by the procedure of Robinson et al [Eur. J. Biochem., 216, 63 (1970)] using ^14 C-sodium bicarbonate (41 mCi/mmol) incorporated into mitochondrial ^14 C-citrate after isolating rat mitochondria (9000 g×10 min) from the homogenates. The exchanges of the ^14 C-citrate were determined after incubating the mitochondrial fraction which was loaded with labeled citrate and test drugs for 10 min. Then the radioactivity was measured in the mitochondrial and supernantant fractions in scintillation fluid and expressed as a percentage. Cholesterol side chain oxidation was determined by the method of Kritchevsky and Tepper [Artherosclerosis, 18, 93 (1973)] using (26-^14 C) cholesterol (50 mCi/mmol) and mitochondria isolated from rat liver homogenates. […] Fatty acid synthetase activity was determined by the method of Brady et al [J. Biol. Chem., 235, 3093 (1960)] using [2-^14 C] malonyl-coenzyme A (37.5 mCi/mmol) which was incorporated into newly synthesized fatty acids that were extracted with ether and counted. Acyl transferase activity was determined with glycerol-3phosphate [L-2-^3 H(N)] […] HCl and counted. Phosphatidate phosphohydrolase activity was measured as the inorganic phosphate released after 30 min from phosphatidic acid by the method of Mavis et al [J. Lipid Res., 19, 467 (1978)]. […]

HMG CoA Reductase = target: T1, HMG CoA Reductase (Mus musculus, UniProt Q01237); test: In vivo liver enzyme study: HMG CoA reductase; settings: CF1 liver after 16 days i.p.
T1 construct: 10% homogenates of CF1 male mouse liver; from tissue; host or cells: CF1 male mouse liver, post-mitochondrial supernatant
T1 sequence (Q01237 1-887): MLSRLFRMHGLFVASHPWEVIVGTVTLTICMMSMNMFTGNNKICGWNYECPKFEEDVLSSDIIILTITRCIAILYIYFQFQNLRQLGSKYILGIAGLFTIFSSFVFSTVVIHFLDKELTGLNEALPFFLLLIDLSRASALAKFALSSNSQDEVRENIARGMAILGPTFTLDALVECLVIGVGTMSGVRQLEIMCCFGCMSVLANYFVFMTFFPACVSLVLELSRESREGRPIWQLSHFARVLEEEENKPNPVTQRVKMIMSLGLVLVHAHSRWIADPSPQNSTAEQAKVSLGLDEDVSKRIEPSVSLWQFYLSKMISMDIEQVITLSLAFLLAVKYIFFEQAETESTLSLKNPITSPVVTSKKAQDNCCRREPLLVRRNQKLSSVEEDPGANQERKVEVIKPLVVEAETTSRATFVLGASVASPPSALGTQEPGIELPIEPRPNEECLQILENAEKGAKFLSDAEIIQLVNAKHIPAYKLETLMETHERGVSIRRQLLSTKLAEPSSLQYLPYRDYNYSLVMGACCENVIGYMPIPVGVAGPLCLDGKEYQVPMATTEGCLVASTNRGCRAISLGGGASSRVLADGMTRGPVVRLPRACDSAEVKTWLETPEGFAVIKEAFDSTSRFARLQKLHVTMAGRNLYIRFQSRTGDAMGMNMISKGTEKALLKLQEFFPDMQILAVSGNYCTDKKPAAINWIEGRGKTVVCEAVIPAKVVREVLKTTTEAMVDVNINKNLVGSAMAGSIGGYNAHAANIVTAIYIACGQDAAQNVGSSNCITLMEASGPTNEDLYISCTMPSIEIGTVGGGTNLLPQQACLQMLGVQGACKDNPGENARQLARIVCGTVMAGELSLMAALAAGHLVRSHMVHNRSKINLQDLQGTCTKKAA
Procedure: as §1

## {Cu[(CH3)3 N.BH2 CO2 ]2.(CH3)3 N.BH2 COOH} [Compound I]
Acetyl CoA synthetase; 2.5 mg/kg
  Acetyl CoA synthetase: 62 ± 6% of control
Acetyl CoA synthetase; 5.0 mg/kg
  Acetyl CoA synthetase: 77 ± 7% of control
Acetyl CoA synthetase; 10 mg/kg
  Acetyl CoA synthetase: 73 ± 7% of control
HMG CoA Reductase; 2.5 mg/kg
  HMG CoA Reductase: 112 ± 8% of control
HMG CoA Reductase; 5.0 mg/kg
  HMG CoA Reductase: 108 ± 9% of control
HMG CoA Reductase; 10 mg/kg
  HMG CoA Reductase: 102 ± 8% of control
